Measurements as given in ChEMBL document CHEMBL1201862, “PubChem BioAssay data set” (2004).
The source made the active and inactive calls.

Experiments:
[1] = viability of PTEN-deleted HCT116 cells – cell-based, HCT116 PTEN knockout, dose response (AID 1047); assay type: functional;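 further: HCT116 colon tumor cells with PTEN knocked out; cells exposed to compound for 60 hours before readout; potency for loss of cell viability measured by luminescence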
[2] = viability of HCT116 lacking mutant beta-catenin – cell-based, human colon tumor, dose response (AID 1045); assay type: functional;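 further: HCT116 colon tumor cells with beta catenin knocked out; cells exposed to compound for 60 hours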
[3] = Luminescence Cell-Based Dose Retest to Confirm Inhibitors of Cancer Stem Cells. [Related pubchem assays (depositor defined):AID2717, AID2721]; assay type: functional; conditions: Homo sapiens
[4] = biological target: T1, Protein Tat (Human immunodeficiency virus type 1 group M subtype B (isolate HXB2)(HIV-1), UniProt P04608); assay type: functional;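 further: tat binding to TAR RNA read out by fluorescence polarization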
T1 sequence (P04608 whole entry): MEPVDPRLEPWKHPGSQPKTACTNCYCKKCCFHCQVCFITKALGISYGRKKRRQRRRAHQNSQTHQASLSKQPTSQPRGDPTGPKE

[5] = HIV-1 Vif–A3G interaction blockers – biochemical, TR-FRET, GST-Vif 1-94, biotin-A3G peptide, dose response retest, primary screen (AID 1117319); assay type: functional;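 further: TR-FRET signal of purified GST-Vif binding a biotinylated A3G peptide; inhibitors lower the FRET signal by blocking Vif and A3G binding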
[6] = M. tuberculosis H37Rv growth inhibitors, H37Rv strain (AID 1626); assay type: functional
[7] = HGIII-sPLA2 enzyme inhibition potency – biochemical, QFRET, IC50, dose response (AID 743457);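 further: green fluorescence rise as the enzyme cleaves BODIPY PC-A2 in liposomes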
[8] = biological target: Major prion protein (Homo sapiens, UniProt P04156); assay type: functional, cell-based
[9] = cells
[10] = A549 cell cytotoxicity, dose response, cytotoxicity control, plate reader, cherry-pick, antagonist series (AID 743412); assay type: functional, cell-based
[11] = blockers of bursicon-stimulated LGR2 cAMP reporter – cell-based, HEK293, CRE-luciferase reporter, cherry pick, set 2, dose response (AID 743343); assay type: functional;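 further: transfected cells were stimulated with diluted bursicon conditioned medium after compound addition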
[12] = blockade of melanocortin 4 receptor signaling – cell-based, plate reader, cherry pick, counter-screen for LGR2 antagonist project, dose response (AID 743444); assay type: functional;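 further: transfected HEK 293 cells stimulated with alpha-MSH peptide; potency of inhibitors of the alpha-MSH evoked signal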
[13] = viability loss in HepG2 hepatoma cells – cell-based, ATP luminescence, cherry-pick, activator set 2, cytotoxicity control, dose response (AID 1053143); assay type: functional
[14] = biological target: T2, Oxysterols receptor LXR-beta (Homo sapiens, UniProt P55055); assay type: functional, cell-based;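 further: agonist activity at LXR measured by a cell-based luminescence readout across a dose range, run as a counterscreen for daf-12 agonists; HEK293 cells with Gal4-LXR fusion and GAL4-driven luciferase reporter; potency for activation of Gal4-LXR reporter so compounds are agonists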
T2 sequence (P55055 whole entry): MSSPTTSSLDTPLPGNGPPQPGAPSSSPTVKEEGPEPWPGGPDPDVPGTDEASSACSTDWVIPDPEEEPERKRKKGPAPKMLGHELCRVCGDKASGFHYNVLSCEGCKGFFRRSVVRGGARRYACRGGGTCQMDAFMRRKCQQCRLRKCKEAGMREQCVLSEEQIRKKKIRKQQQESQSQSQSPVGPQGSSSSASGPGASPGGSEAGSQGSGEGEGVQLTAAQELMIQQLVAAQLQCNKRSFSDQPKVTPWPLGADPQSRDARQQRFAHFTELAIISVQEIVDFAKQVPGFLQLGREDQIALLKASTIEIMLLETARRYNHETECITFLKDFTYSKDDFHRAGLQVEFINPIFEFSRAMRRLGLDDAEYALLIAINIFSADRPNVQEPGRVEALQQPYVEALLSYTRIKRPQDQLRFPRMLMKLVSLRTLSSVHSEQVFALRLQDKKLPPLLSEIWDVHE

[15] = biological target: T3, Bcl-2-like protein 10 (Homo sapiens, UniProt Q9HD36); test: Bcl-B/TR3 peptide binding disruption – biochemical, fluorescence polarization, FITC-TR3 peptide, selectivity assay for Bfl-1 inhibitor project, primary screen (AID 748);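 further: fluorescence polarization from a fluorescein-labelled TR3 peptide binding purified Bcl-B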
T3 sequence (Q9HD36 whole entry): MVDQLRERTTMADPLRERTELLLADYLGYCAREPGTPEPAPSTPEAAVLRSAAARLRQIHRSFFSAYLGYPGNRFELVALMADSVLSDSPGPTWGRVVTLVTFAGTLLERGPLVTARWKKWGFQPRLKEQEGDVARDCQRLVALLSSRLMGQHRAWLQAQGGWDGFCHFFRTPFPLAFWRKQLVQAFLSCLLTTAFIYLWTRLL

[16] = decrease of insulin promoter-GFP reporter – imaging, high-content screening, mouse beta cells (AID 1628); assay type: functional; conditions: MIN6
[17] = MIN6 cell viability loss – mouse insulinoma, cytotoxicity control, dose response (AID 2122); assay type: functional;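 further: confirmatory high-throughput counterscreen run to flag cytotoxic compounds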
[18] = reduced cellular PGC1a acetyl-lysine signal – cell-based, cherry-picked samples, dose response (AID 720514); assay type: functional;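 further: potency may reflect raised or lowered acetylation signal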
[19] = Luminescence-based counterscreen assay for KLF5 inhibitors: dose response cell-based high throughput screening assay to identify cytotoxic compounds using the IEC-6 intestinal epithelial cell line. [Related pubchem assays: 1700 (Primary screen.), 1834 (Confirmation screen.), 1858 (Summary AID.), 1905 (Counterscreen.)]; assay type: functional
[20] = loss of viability in HepG2 cells – cell-based, CellTiter-Glo, cherry-picked, cytotoxicity control for Shn3 inhibitor project, dose response (AID 624134); assay type: functional
[21] = non-specific 3'UTR reporter inhibition in Clone20-Shn3RL – cell-based, Renilla luciferase, cherry-picked, counter-screen for Shn3 inhibitor project, dose response (AID 624133); assay type: functional
[22] = biological target: Protein Wnt-3a (Mus musculus, UniProt P27467); test: antagonism of Wnt3a pathway luciferase reporter – Wnt-LIGHT cells, luminescence, selectivity assay for Gli-SUFU antagonist project, dose response (AID 651570); assay type: functional; conditions: read-out: IC50_Mean;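 further: Wnt-LIGHT reporter cells stimulated with conditioned medium from Wnt3a-producing cells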
[23] = biological target: T4, COUP transcription factor 2 (Homo sapiens, UniProt P24468); test: Luminescence-based cell-based high throughput dose response assay to identify inhibitors of COUP-TFII (NR2F2).; assay type: functional;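 further: HEK293 cells transiently cotransfected with COUP-TFII expression vector and reporter; luciferase reporter luminescence driven by COUP-TFII from the pX2-168 reporter plasmid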
T4 sequence (P24468 whole entry): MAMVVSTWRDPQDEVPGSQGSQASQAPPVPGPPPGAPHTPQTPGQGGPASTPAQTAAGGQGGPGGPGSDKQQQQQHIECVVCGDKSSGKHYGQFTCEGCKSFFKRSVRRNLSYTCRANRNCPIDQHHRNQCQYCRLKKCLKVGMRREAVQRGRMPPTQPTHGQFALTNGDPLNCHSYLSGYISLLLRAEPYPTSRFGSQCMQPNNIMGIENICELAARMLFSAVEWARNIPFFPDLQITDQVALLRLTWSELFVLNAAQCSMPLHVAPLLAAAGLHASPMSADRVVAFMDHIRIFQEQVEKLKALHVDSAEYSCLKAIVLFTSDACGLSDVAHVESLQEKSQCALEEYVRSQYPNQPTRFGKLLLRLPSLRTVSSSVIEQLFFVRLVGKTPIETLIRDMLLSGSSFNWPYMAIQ

[24] = biological target: T5, Calpain-2 catalytic subunit (Sus scrofa, UniProt P43367); test: m-calpain protease blockers, concentration series – biochemical, fluorogenic peptide substrate, dose response (AID 1420); assay type: functional
T5 sequence (P43367 whole entry): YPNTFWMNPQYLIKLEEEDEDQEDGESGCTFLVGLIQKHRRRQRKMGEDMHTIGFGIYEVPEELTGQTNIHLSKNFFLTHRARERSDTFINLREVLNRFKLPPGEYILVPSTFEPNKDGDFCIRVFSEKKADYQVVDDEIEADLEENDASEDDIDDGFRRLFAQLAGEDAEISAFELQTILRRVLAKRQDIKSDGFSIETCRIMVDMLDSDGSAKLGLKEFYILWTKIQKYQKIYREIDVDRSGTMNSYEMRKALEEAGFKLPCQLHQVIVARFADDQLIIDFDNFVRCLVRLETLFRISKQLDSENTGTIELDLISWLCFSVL

[25] = biological target: T6, Rac GTPase-activating protein 1 (Homo sapiens, UniProt Q9H0H5); test: blockers of MgcRacGAP-driven Rac1 GTP hydrolysis – biochemical, ADP Hunter fluorescence, primary and confirmatory, confirmation (AID 624330); assay type: functional
T6 sequence (Q9H0H5 whole entry): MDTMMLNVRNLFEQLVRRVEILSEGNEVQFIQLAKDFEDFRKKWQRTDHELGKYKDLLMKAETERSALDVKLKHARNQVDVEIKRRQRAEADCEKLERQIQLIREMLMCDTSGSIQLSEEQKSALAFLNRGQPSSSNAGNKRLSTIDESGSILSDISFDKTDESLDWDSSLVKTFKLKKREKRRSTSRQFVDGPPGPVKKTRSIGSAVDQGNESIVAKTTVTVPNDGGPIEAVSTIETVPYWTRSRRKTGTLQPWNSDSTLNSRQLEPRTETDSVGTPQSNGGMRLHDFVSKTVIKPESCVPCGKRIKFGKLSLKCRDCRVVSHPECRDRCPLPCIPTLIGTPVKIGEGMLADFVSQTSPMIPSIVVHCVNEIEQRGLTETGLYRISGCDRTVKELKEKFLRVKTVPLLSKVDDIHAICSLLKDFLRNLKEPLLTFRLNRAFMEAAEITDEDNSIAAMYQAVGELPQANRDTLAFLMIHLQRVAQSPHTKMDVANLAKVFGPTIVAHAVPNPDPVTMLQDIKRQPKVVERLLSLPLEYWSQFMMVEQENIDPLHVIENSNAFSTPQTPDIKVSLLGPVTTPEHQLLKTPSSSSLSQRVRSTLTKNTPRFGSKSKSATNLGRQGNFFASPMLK

[26] = biological target: Glyceraldehyde-3-phosphate dehydrogenase (Homo sapiens, UniProt P04406)
[27] = reduction of Shn3 3'UTR-driven luciferase in osteoblasts – cell-based, Clone20 osteoblasts, firefly luciferase, cherry-picked, dose response (AID 624132); assay type: functional;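 further: firefly luciferase luminescence from reporter carrying the Shn3 3'UTR in osteoblasts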
[28] = NIH-3T3 fibroblast cytotoxicity, dose response, cytotoxicity control, cell-based, fluorescence, Alamar Blue, secondary assay (AID 2327); assay type: functional;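 further: NIH-3T3 mouse fibroblasts cultured with fluconazole at 8 µg/mL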
[29] = fluconazole-exposed Candida albicans growth modulators – fluorescence, retest, confirmation (AID 2467); assay type: functional, cell-based
[30] = biological target: Trypsin (Sus scrofa, UniProt P00761); test: trypsin protease activity blockade – biochemical, quenched peptide fluorescence, cherry-pick, selectivity assay for Rce1 protease inhibitor project, dose response (AID 488789)
[31] = Luminescence Cell-Based Dose Confirmation HTS to Identify Activators of 5'UTR Stem-Loop Driven Alpha-Synuclein mRNA Translation in H4 Neuroglioblastoma Cells. [Related pubchem assays: 1829 (Project Summary), 1814 (Primary HTS)]; assay type: functional
[32] = Luminescence Cell-Based Dose Response HTS to Identify Activators of Luciferase Translation or Activity in H4 […] Cells. [Related pubchem assays: 1829 (Project Summary), 1814 (Primary HTS)]; assay type: functional
[33] = test system: H4; test: Luminescence Cell-Based Dose Response HTS to Identify Activators of 5'UTR Stem-Loop Driven Prion Protein mRNA Translation in H4 Neuroglioblastoma Cells. [Related pubchem assays: 1829 (Project Summary), 1814 (Primary HTS)]; assay type: functional; conditions: Homo sapiens

COCCNc1nnc(SC(C)C(=O)Nc2ccc(-c3nc4ccc(C)cc4s3)cc2)s1 (centres undefined)
EC50 [1]: 30 µM (active) | EC50 [2]: 39.1 µM (active) | AC50 [3]: 10.5 µM (active) | IC50 [4]: > 100 µM (active) | IC50 [5]: > 50 µM (active)

CCCc1ccc(-c2cc(C(=O)NC3=NCCS3)c3ccccc3n2)cc1
IC50 [6]: > 100 µM (active)

Cc1ccc2nc(NNC(=O)c3ccc4c(c3)OCCO4)sc2c1
IC50 [7]: > 122 µM (inactive)

COCC(=O)Nc1ccc(Br)c(C)c1
IC50 [6]: > 100 µM (active)

COC(=O)CSc1nc(Cc2ccccc2)nc2ccccc12
IC50 [8]: 3.29 µM (active) | IC50 [9]: > 138 µM (inactive)

NC(=O)c1ccc(-c2ccc(Br)cc2)o1
IC50 [8]: 7.42 µM (active) | IC50 [9]: > 138 µM (inactive)

N#C[C@@H]1[C@H](c2ccc(C#CC3CCCCC3)cc2)[C@@H](CO)N1S(=O)(=O)c1ccccc1
AC50 [10]: 27.9 µM (active) | AC50 [11]: 12.8 µM (active) | AC50 [12]: 8.18 µM (active)

Cc1nc2ccc(Br)cc2c(-c2ccccc2)c1C(=O)O
IC50 [8]: 5.47 µM (active) | IC50 [9]: > 138 µM (inactive)

Cc1cc(NC(=O)c2ccccc2)ncc1NC(=O)c1ccco1
AC50 [13]: 26 µM (active)

O=C(Nc1ncccc1O)c1cc2ccccc2o1
AC50 [13]: 26 µM (active) | EC50 [14]: > 67.6 µM (inactive)

COc1ccc(Nc2cc(C)nc3nc(C)nn23)cc1Cl
IC50 [15]: > 100 µM (inactive)

COc1ccc(C(NC(=O)c2c(F)c(F)c(F)c(F)c2F)c2ccccc2)cc1 (centres undefined)
IC50 [16]: 1.79 µM (active) | IC50 [17]: 1.7 µM (active) | EC50 [1]: 27.4 µM (active) | EC50 [2]: 16.8 µM (active) | AC50 [18]: 4.77 µM (active)

CCc1ccc(NC(=O)CSc2nnc(-c3cnccn3)n2Cc2ccco2)cc1
AC50 [18]: 32.5 µM (active)

CC(C)CC(NC(=O)CCCNC(=O)CCC(=O)OC1O[C@H]2OC3(C)CC[C@H]4[C@H](C)CCC(C1C)C24OO3)C(=O)O (some centres undefined)
IC50 [19]: 31.8 µM (not active) | AC50 [20]: > 70 µM (inactive) | AC50 [21]: 5.65 µM (active) | IC50 [22]: 0.304 µM (active) | IC50 [23]: > 85.4 µM (inactive)

COc1ccc(NC(C)c2cc(Cl)ccc2O)cc1 (centres undefined)
IC50 [6]: > 100 µM (active) | IC50 [24]: 13.9 µM (not active) | IC50 [25]: 69.1 µM (active)

O=C1C(Cl)=C(N2CCN(CCOCCO)CC2)C(=O)N1c1cccc(C(F)(F)F)c1
IC50 [26]: > 50 µM (inconclusive)

COc1ccc(N2CCN(C3=C(Cl)C(=O)N(c4cccc(C)c4)C3=O)CC2)cc1
IC50 [26]: > 50 µM (inconclusive)

O=C1/C(=C/c2ccccn2)SC(=S)N1Nc1ncc(C(F)(F)F)cc1Cl
AC50 [27]: 49.9 µM (active) | AC50 [21]: 33.1 µM (active) | IC50 [7]: 47.8 µM (inactive)

O=C(COc1ccccc1)Nc1cccc(-c2nc3cc4ccccc4cc3[nH]2)c1
EC50 [28]: 7.43 µM (active) | EC50 [29]: 1.64 µM (active) | EC50 [1]: 11.8 µM (active) | EC50 [2]: 12.1 µM (active) | AC50 [30]: 5.74 µM (active)

O=C(CCN1CCc2ccccc21)c1ccc2c(c1)OCCO2
EC50 [31]: 53.2 µM (active) | EC50 [32]: 110 µM (active) | IC50 [15]: 59.3 µM (inactive) | EC50 [33]: 46.1 µM (active)
